Test results: PubChem BioAssay AID1159562 (GlaxoSmithKline (GSK), 2015)
The source made the active and inactive calls. No rule for the calls is given here.

Test system: Trypanosoma brucei growth inhibition, luminescence
Assay: Trypanosoma brucei growth inhibition, luminescence (AID 1159562);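 also: parasites grew with compound for 24 h before the luminescence read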

With `N#Cc1ccc(S(=O)(=O)N2CCC3(CCN(c4ccccc4)C3=O)CC2)cc1` the IC50 was > 40 µM (inactive).
In the case of `O=C(NCCc1cccnc1)c1ccc(-c2ccccc2F)o1`, the IC50 is reported as > 40 µM (inactive).
With `CC(C)Oc1cccc(N2CCC(C(=O)N3CCCN(C(C)C)CC3)CC2)c1` the IC50 was > 40 µM (inactive).
In the case of `Cc1[nH]c2ccccc2c(=O)c1Cc1c(C)[nH]c2ccccc2c1=O`, the IC50 is reported as > 40 µM (inactive).
With `O=C(NCCc1ccccc1Cl)c1cccn1-c1cccnc1` the IC50 was > 40 µM (inactive).
For `Clc1ccc(OCCN2CCCCC2c2cccnc2)c(Cl)c1` (configuration not stated), the IC50 was > 40 µM (inactive).
With `O=c1ccn(-c2ccc([N+](=O)[O-])cc2Cl)c2ccc(F)cc12` the IC50 was > 40 µM (inactive).
In the case of `O=C(NCCc1cccnc1)c1csc(-c2ccccc2)n1`, the IC50 is reported as > 40 µM (inactive).
In the case of `COc1ccc(S(=O)(=O)NC(C)C)cc1Nc1ncc(-c2cccc(F)c2)cn1`, the IC50 is reported as > 40 µM (inactive).
In the case of `Fc1ccccc1N1C[C@H]2CCN(c3cccnc3)C[C@H]2C1`, the IC50 is reported as > 40 µM (inactive).
In the case of `CCn1nccc1CN(C)C(=O)C=Cc1ccc(Cl)cc1`, the IC50 is reported as > 40 µM (inactive).
In the case of `CCN(Cc1cccs1)C(=O)CSc1nnc(-c2ccc3c(c2)OCO3)o1`, the IC50 is reported as > 40 µM (inactive).

Point of comparison: `Cc1ccc(S(C)(=O)=O)cc1Nc1nccc(-c2sc(N)nc2-c2ccccc2)n1`, IC50 1.6 µM. Against it:
- N#Cc1cnc(Nc2cccc(CCN3CCOCC3)c2)nc1Nc1ccccc1C(N)=O — 6.4-fold lower, 0.25 µM
- Cn1ccnc1-c1nc(NCc2ccccc2Cl)cc(C2CC2)n1 — the same, 1.6 µM
- O=C(COc1ccccc1)Nc1ccccc1C(=O)Nc1nccs1 — 2.5-fold lower, 0.63 µM
- COc1ccc(C(=O)Nc2cc(C(F)(F)F)ccc2N2CCOCC2)c(OC)c1 — 16-fold higher, 25 µM
- COc1ccc(OC)c(NC(=O)c2ccc([N+](=O)[O-])o2)c1 — 25-fold lower, 0.063 µM
- CCOc1ccc(Nc2ccc(S(=O)(=O)N3CCN(C)CC3)cc2[N+](=O)[O-])cc1OCC — 20-fold higher, 32 µM
- Cc1cccnc1NC(=O)c1cccc(OCc2c(C)noc2C)c1 — 2-fold lower, 0.79 µM
- O=C(Nc1nc(-c2ccc(S(=O)(=O)N3CCOCC3)cc2)cs1)c1ccc([N+](=O)[O-])cc1 — 6.2-fold higher, 10 µM
- CN(Cc1nc2ccc(C(=O)NCC3CCCCC3)cc2[nH]1)C1CCCc2cccnc21 (configuration not stated) — 5-fold lower, 0.32 µM
- O=C(NCC1CCCCC1)c1cc(=O)c2ccccc2o1 — within 1.5-fold, 1.3 µM
- N#Cc1cccc(Cc2cc(Nc3cc(C4CC4)[nH]n3)nc(N3CC[C@H]3C(N)=O)n2)c1 — 25-fold lower, 0.063 µM
- CCN(Cc1nc2ccc(C(=O)N3CCN(c4ncccn4)CC3)cc2[nH]1)C1CCCc2cccnc21 (configuration not stated) — 3.1-fold higher, 5 µM
- COc1cnc2ccc(=O)n(CCN3CCC(NC(=O)Cc4ccc(Cl)c(Cl)c4)CC3)c2c1 — 3.2-fold lower, 0.5 µM
- CC(C)S(=O)(=O)c1ccc(-c2cnc(N)c3cc(-c4ccnc(N)n4)ccc23)cc1 — 6.4-fold lower, 0.25 µM
- COc1cc(F)c2ncc(F)c(CCN3CC[C@H](NCc4cc5c(cn4)OCS5)[C@@H](O)C3)c2c1 — 3.2-fold lower, 0.5 µM
- COc1ccc(C(=O)NC2CCN(CCn3c(=O)ccc4ncc(F)cc43)CC2)cc1Cl — 6.4-fold lower, 0.25 µM
- CCCc1cc(C(=O)Nc2ncc(-c3cccc(Br)c3)n2C)n[nH]1 — within 1.5-fold, 1.3 µM
- Cc1cc(Br)sc1CNCCCNc1cc(=O)c2ccccc2[nH]1 — 16-fold lower, 0.1 µM
- COc1cc(-c2noc(CC#N)n2)ccc1OC(F)F — 2.5-fold lower, 0.63 µM
- O=C(NC1CCN(C2Cc3ccc(NS(=O)(=O)c4cc(F)cc(F)c4)cc3C2)CC1)C1CC1 (configuration not stated) — 2-fold lower, 0.79 µM
- CCOc1ccc(CN(C)Cc2nc(N)nc(Nc3ccc(C)cc3)n2)cc1 — within 1.5-fold, 2 µM
- Cc1cc(Nc2ccc(C#N)c(Cl)c2C)n[nH]1 — 6.4-fold lower, 0.25 µM
- CC(C)(C)C(=O)Nc1cc(C2CC2)nn1-c1nc2c(c(=O)[nH]1)CCCC2 — 8-fold lower, 0.2 µM
- CC(c1ccc2c(c1)CCCC2)N(C)c1ncc2c(N)nc(N)nc2n1 (configuration not stated) — 8.1-fold higher, 13 µM
- COc1cc(C(C)C)c(S(C)(=O)=O)cc1C(=O)N1CCN(c2ccccc2Cl)CC1 — 20-fold higher, 32 µM
- CNC(=O)C1Cc2ccccc2N1C(=O)Cc1ccc(OC)cc1 (configuration not stated) — 3.2-fold lower, 0.5 µM
- O=c1[nH]c(NCCCNCc2cc(Br)cc(Br)c2)nc2ccsc12 — 16-fold lower, 0.1 µM
- Cc1cc(Oc2cc(Cl)c(Cl)cc2Cl)n2ncnc2n1 — 4-fold lower, 0.4 µM
- O=[N+]([O-])c1ccc(-c2nnn(-c3ccc(Cl)cc3)n2)o1 — 1.6-fold lower, 1 µM
- Cc1ccccc1NS(=O)(=O)c1ccc2[nH]cc(C(=O)NC3CCCC(C)C3C)c(=O)c2c1 (configuration not stated) — 2.5-fold lower, 0.63 µM
- CCc1c(C)nc(-n2nc(C)cc2NC(=O)COc2ccccc2F)[nH]c1=O — 8-fold lower, 0.2 µM
- O=C(CCCNC(=O)c1ccc(Cl)cc1)Nc1nc(-c2ccccn2)cs1 — 8.1-fold higher, 13 µM
- O=C(Nc1ccc(C(F)(F)F)cc1)NC1(C(=O)NCc2ccco2)CCCCC1 — 1.6-fold lower, 1 µM
- Cc1cc(C)cc(NS(=O)(=O)c2cc(-c3cc(C)[nH]n3)ccc2C)c1 — within 1.5-fold, 2 µM
- CN(C)Cc1cccc(Nc2nccc(-c3ccc(NCCN)c(C#N)c3)n2)c1 — 8-fold lower, 0.2 µM
- COc1ccc2ncc(Cl)c(CCN3CC[C@@H](NCc4cc5c(cn4)OCS5)[C@H](O)C3)c2n1 — 4-fold lower, 0.4 µM
- O=C(Nc1ccc(C(F)(F)F)cc1)Nc1cccc([N+](=O)[O-])c1 — within 1.5-fold, 2 µM
- Cc1ccc(NC(=O)c2ccc([N+](=O)[O-])s2)cc1S(=O)(=O)N1CCOCC1 — 2-fold lower, 0.79 µM
- N#Cc1c(Oc2cccc(Cl)c2)cccc1[N+](=O)[O-] — 320-fold lower, 0.005 µM
